Laboratory results taken from US9220714B2, “Nitrofuran compounds for the treatment of cancer and angiogenesis” (WOMEN AND INFANTS HOSPITAL OF RHODE ISLAND, priority 2006, dated 2015).
Values after ≈ are worked out from the molar mass of the structure shown. Where two headings read alike, the source gives them in different places.

What was measured:
SMS-KCNR cells [1] = assay: cells; settings: Homo sapiens
Procedure: (§1) Cell viability was assessed using the MTS assay as described in Materials and Methods and expressed as percent of vehicle treated control. The data represents the mean SSD of four replicates.
SMS-KCNR cells were pretreated with pancaspase inhibitor, Z-VAD-FMK. […] Cell viability was measured by MTS assay. The reversal of cytotoxicity by pancaspase inhibitor was determined by comparing the viability of riifurtimox treated cells in the presence or absence of the pancaspase inhibitor. The values are the Mean±SD of quadruplicates.
(§2) The human neuroblastoma cell lines IMR-32 (ATCC), SMS-KCN, SMS-KCNR (from John Maris, CHOP, Philadelphia, Pa.) were maintained in RPMI 1640 media supplemented with 10% fetal bovine serum, 100 units/ml penicillin and 100 μg/ml streptomycin at 37° C. in a humidified incubator. Cells were grown in 6 well plates or 100 mm dishes to 75% confluency and serum deprived (RPMI 1640 with 0.1% BSA) overnight before treatment.
(§3) Cell viability was measured using the CellTiter 96 AQ One Solution Cell Proliferation Assay kit (Promega, Madison Wis.)^4. […] Vehicle treated cells were used as control (0.001% DMSO). At the end of the incubation period, MTS reagent (3-(4,5-dimethylthiazol-2-yl)-5-(3-carboxymethoxyphenyl)-2-(4-sulfophenyl)-2H-tetrazolium)^12 was added to each well in fresh media to a final concentration of 0.5 mg/ml and incubated for 4 hours. Absorbance was measured at 490 nm using a microplate reader (Multiskan RC, Fisher Scientific Pittsburgh, Pa.). Cell viability is represented as the mean percentage+/−SD of absorbance before and after treatment.
Inactivation of caspases results in inhibition of caspase mediated apoptosis. […] The cell viability was measured by MTS assay.

IMR-32 cells = assay: cells; settings: Homo sapiens
Procedure: as §1, §2, §3

SMS-KCN cells = assay: cells; settings: Homo sapiens
Procedure: as §1, §2, §3

SMS-KCNR cells [2] = assay: cells; settings: Homo sapiens, read-out: concentration giving 50% inhibition in DNA synthesis (BrdU incorporation)
Procedure: (§4) Cells were labeled with 10 μM BrdU for 6 hours. The cells were fixed and the color was developed using peroxidase conjugated anti-BrdU antibody and TMB (3,3′,5,5′-tetramethylbenzidine) chromogenic substrate. Absorbance was measured at 450 nm using a microplate reader (Multiskan RC, Fisher Scientific, Pittsburgh, Pa.). In this assay, the color intensity correlates directly to the amount of BrdU incorporation which in turn reflects proliferation.

[3] = system: Human Endothelial Cells (HEC); assay: cells; settings: Endothelial cell, read-out: inhibition of DNA synthesis in HEC
Procedure: as §4
Human Endothelial Cells (HEC) (1×10^4 cells) were cultured in 96 well plates, serum deprived for 16 hours and treated with […], 1.25, 2.5, 5, 10 and 20 μg/ml in Medium 200 in the presence or absence of 50 ng/ml VEGF for 72 hours. BrdU (10 μM final concentration) was added to the cells and re-incubated for further 6 hours. The cells were fixed and the color was developed using anti-BrdU-POD antibody and TMB chromogenic substrate. The assay was performed according to the manufacturer's instructions. In this colorimetric cell proliferation assay, the color intensity correlates directly to the amount of BrdU incorporated into the DNA which in turn represents proliferation. The results are expressed as percentage BrdU incorporation.

Akt = settings: SMS-KCNR
Procedure: as §2

caspase-3 = settings: 1, 10 and 20 μg/ml, 24 hours
Procedure: as §2

SMS-KCNR cells [4] = settings: 96 hours
Procedure: Vehicle treated cells were used as control.
Vehicle treated cells were used as control. […] The cells were washed with PBS, fixed with paraformaldehyde, permeabilized with Triton X-100 at room temperature, labeled with fluorescein-12-dUTP using terminal deoxynucleotidyl transferase and counterstained with propidium iodide (5 μg/ml). Negative controls (without terminal transferase) were included in each experiment. Apoptosis was detected by fluorescence microscopy (Nikon Eclipse TE2000-E fitted with a cooled CCD camera, Japan). Propidium iodide staining was used to detect both non-apoptotic and apoptotic cells and fluorescein staining was used to detect the apoptotic cells.

rat aortic rings = settings: with growth factors, day 9
From the text: (A) Vehicle treated aorta without growth factor (B) Vehicle treated aorta with growth factor.
Matrigel bed mimics physiological extracellular matrix representing its natural composition and architecture. Due to these features, Matrigel enables several cell types, including endo-thelial cells, to maintain in culture their in vivo phenotype and 3-dimensional organization. Aortic arches were removed from euthanized rats and immediately transferred to a culture dish containing ice-cold serum-free media. The peri-aortic fibroadipose tissue was carefully removed with fine microdissection forceps and iridectomy scissors paying special attention not to damage the aortic wall. Aortic rings (1 mm thick) were sectioned and extensively rinsed in 5 consecutive washes of Medium 200. […] The explants were examined every second day with a Nikon Eclipse TS100 inverted microscope at an appropriate magnification and photographed at the end of 9th day. On the ninth day, the capillary sprouting were quantified by grading and recording the extent of sprouting directly reflecting angiogenesis using Nikon Eclipse TS100 fluorescent microscope (Japan) and Fuji digital camera.

neuroblastoma = settings: for tumor marker VMA: initial VMA 22
From the text: Chagas disease is a parasitic disease caused by Trypanasoma cruzi endemic to South America.

ERK1/2 = settings: SMS-KCNR, data not shown
SMS-KCNR cells [5] = settings: 0-20 μg/ml, after 72 hours of treatment
SMS-KCNR cells [6] = settings: 150 mg/kg/day in food pellets, 30 days, nude mice
sympathetic neurons = settings: not seen in parasympathetic neurons or non-neuronal cells
HEC = assay: cells; settings: Homo sapiens, 8 h, read-out: inhibition of tube formation
Procedure: Stimulation with growth factors leads to morphological differentiation of endothelial cells and formation of tube like structures on matrices. The endothelial tube formation assay was performed in Matrigel bed. Briefly, Matrigel bed was prepared by using pre-cooled pipettes, plates and tubes on ice. Growth factor-reduced Matrigel was thawed overnight at 4° C. and mixed to homogeneity, Culture plates (48-well) were coated with 0.1 ml of Matrigel and allowed to gelatinize at 37° C. for 30 minutes. […] Capillary networks were photographed using a phase-contrast microscope (Nikon Eclipse TS 100, fitted with Fuji digital camera, Japan), and the number of tubes was quantified by counting the branching points from four quadrants of each well.

normal epithelial cells = normal epithelial cells in culture; cited from earlier work
[7] = study of 67 children using nifurtimox for Chagas disease; cited from earlier work
[8] = 120 h, read-out: cell viability
[9] = read-out: IC50, concentration required to reach 50% inhibition of growth

CC1CS(=O)(=O)CCN1/N=C/c1ccc([N+](=O)[O-])o1 (stereo not drawn) [Nifurtimox]
cytotoxicity at 10 µg/mL (SMS-KCNR cells [1]; 96 h, read-out: decrease of cell viability compared to vehicle treated control): 50% | viability at 20 µg/mL (SMS-KCNR cells [1]; [8]): 37% | IC50 (SMS-KCNR cells [1]; [9]): 14.7 µg/mL (≈ 51.2 µM) | viability at 10 µg/mL (SMS-KCNR cells [1]; read-out: cell viability with Z-VAD-FMK pretreatment): 90% | viability at 20 µg/mL (IMR-32 cells; IMR-32, 120 h, read-out: cell viability): 78% | IC50 (IMR-32 cells; IMR-32, read-out: IC50, concentration required to reach 50% inhibition of growth): 52.9 µg/mL (≈ 184 µM) | viability at 20 µg/mL (SMS-KCN cells; [8]): 59% | IC50 (SMS-KCN cells; [9]): 25.4 µg/mL (≈ 88.4 µM) | IC50 (SMS-KCNR cells [2]): 18.1 µg/mL (≈ 63 µM) | inhibition at 5 µg/mL [3]: 30% | inhibition at 10 µg/mL [3]: 50% | inhibition at 20 µg/mL [3]: > 80% | serum stimulated Akt phosphorylation (Akt; 1.0 and 10 μg/ml, in the presence of serum): completely inhibited | BDNF stimulated Akt phosphorylation (Akt; 10 and 20 μg/ml, BDNF stimulation): significantly inhibited | total Akt protein levels (Akt; BDNF stimulation): not altered | activation of caspase-3 (19 and 17 kDa bands) (caspase-3): dose dependent and strong activation | morphological alterations (SMS-KCNR cells [4]; 1 μg/ml): decrease in axon length was apparent | morphological alterations (SMS-KCNR cells [4]; 10 μg/ml): the decrease in axon length was more prominent and was associated with rounding of cells | morphological alterations (SMS-KCNR cells [4]; 20 μg/ml): rounded up and floating | micro-vascular sprouting of aortic rings (rat aortic rings; 20 μg/ml): complete inhibition of micro-vascular sprouting | capillary network of aortic rings (rat aortic rings; 1 and 10 μg/ml): sparse and incomplete | tumor response (neuroblastoma; Patient A, after four months, with cyclophosphamide and topotecan): significant and continuous tumor regression | tumor response (neuroblastoma; Patient A, after two weeks, Nifurtimox alone): tumor stabilization | tumor markers (neuroblastoma; Patient B, after two months, with ascorbic acid, cyclophosphamide and topotecan): normalization of tumor markers | tumor marker VMA (neuroblastoma; Patient C, Day 21, before ascorbic acid): 17 | bone marrow tumor status (neuroblastoma; Patient C, Day 21, initially positive for tumor): negative | tumor marker VMA (neuroblastoma; Patient C, after 3 cycles of treatment): 13 | tumor response (neuroblastoma; patient with Chagas disease, 15-20 mg/kg/day oral, with cyclophosphamide and topotecan): tumor subsequently regressed | tumor response after relapse (neuroblastoma; same patient restarted on nifurtimox, cyclophosphamide and topotecan): again demonstrated tumor regression | tumor response (neuroblastoma; three patients with relapsed neuroblastoma, 20 mg/kg/day, alone or in combination): tumor regression | phosphorylation of ERK1/2 (ERK1/2): not affected | apoptosis (TUNEL positive nuclei) (SMS-KCNR cells [5]): dose dependent increase in apoptosis | decrease in tumor size versus untreated (SMS-KCNR cells [6]): greater than three fold decrease | tumor size (SMS-KCNR cells [6]): 0.3 grams | cytotoxicity after pretreatment with AMPT (tyrosine hydroxylase inhibitor) (neuroblastoma cell lines): reduction of cytotoxicity | sensitivity of sympathetic neurons to nifurtimox (sympathetic neurons): enhanced sensitivity | inhibition at 20 µg/mL (HEC): 50% | cytotoxic effects on normal epithelial cells (normal epithelial cells): not observed | tolerability in children versus adults [7]: much better tolerated in children
